Target: T1, human ABHD14B (Homo sapiens, UniProt Q96IU4)
T1 sequence (Q96IU4 1-210): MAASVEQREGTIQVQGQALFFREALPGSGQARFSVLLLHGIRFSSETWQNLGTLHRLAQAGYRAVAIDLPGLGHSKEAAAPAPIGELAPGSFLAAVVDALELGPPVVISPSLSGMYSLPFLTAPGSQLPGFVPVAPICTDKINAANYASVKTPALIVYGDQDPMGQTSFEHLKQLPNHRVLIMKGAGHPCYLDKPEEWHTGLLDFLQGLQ
Assay: thermal shift assay, Sypro-Orange
Type: binding
Details: 10 mM ligand, 10 μM enzyme, 10 mM Tris pH 8

Row | SMILES | leftward (lower temperature) thermal shift
1 | CC(C)(COP(=O)(O)OP(=O)(O)OC[C@H]1O[C@@H](n2cnc3c(N)ncnc32)[C@H](O)[C@@H]1OP(=O)(O)O)[C@@H](O)C(=O)NCCC(=O)NCCS [CoA] | ~ 2 °C
2 | CC(=O)SCCNC(=O)CCNC(=O)[C@H](O)C(C)(C)COP(=O)(O)OP(=O)(O)OC[C@H]1O[C@@H](n2cnc3c(N)ncnc32)[C@H](O)[C@@H]1OP(=O)(O)O [acetyl-CoA] | ~ 2 °C

— paper PMC6976303 (Biochemistry, 2019)
